Source: article PMC2607543, “Peptides Derived from HIV-1 Integrase that Bind Rev Stimulate Viral Genome Integration” (PLoS ONE, 2009)
Where no end group is shown, it is not given here.

How the values were obtained:
[1] = tested on: viral Gag or Nef DNA sequences; format: cell-based, HIV-1; conditions: INr 12.5 µM or AZT 2 µM, 2 h before infection, 6 h after; Gag (A) or Nef (B) PCR; Fig 8A and B
HIV-1 in Sup-T1 cells = experiment: Time-of-addition assay, viral p24 in Sup-T1 cells; format: cell-based; conditions: MOI 2; dextran sulfate 20 µM, AZT 2 µM, LEDGF 402–411 12.5 µM; p24 at 48 h PI; Fig 8C
Procedure: Figure 8 Virus-cell adsorption and viral reverse-transcriptase activity are not affected by the INr peptides. (A and B) Estimation of viral DNA in virus-infected cells: Sup-T1 cells were incubated with the indicated peptides or with AZT for 2 h and then were infected with HIV. Following another 6 h incubation, the viral Gag (A) or Nef (B) DNA sequences were amplified using specific primers. The reaction was terminated after 30 cycles. Lanes: 1) INr-1 (12.5 µM); 2) INr-2 (12.5 µM); 3) AZT (2 µM); 4) untreated cells; 5) uninfected cells. […] (C) Influence of the time of addition on P24 production: Sup-T1 cells were infected with HIV-1 at a MOI of 2, and the indicated constituents were added at different time points PI (0, 2, 4,…, 24 h). Viral p24 was determined at 48 h PI. No addition (Blue X); no virus (Gray diamond); dextran sulfate 20 µM (Brown asterisk); AZT 2 µM (Red empty circle); INr-1 12.5 µM (Green diamond); INr-2 12.5 µM (Magenta square); LEDGF 402–411 (Black full circle).
Sup T1 cells were infected with wild-type HIV-1 at a MOI of 2, and the test compounds were added at different time points after infection (0, 2, 4,…, 24 h). Viral p24 production was determined at 48 h PI [59]. Dextran sulfate was tested at 20 µM, AZT at 2 µM, LEDGF 402-411, INr-1 and INr-2 at 12.5 µM.

HeLa TZM-bl cells = experiment: MTT cell toxicity assay, HeLa TZM-bl; format: cell-based; conditions: up to about 62 µM, Fig 4B
Procedure: (§1) Figure 4 Cell penetration and toxicity of INr peptides. (A) Fluorescein-labeled INr-1, INr-2, and IN-3 (a known nonpermeable peptide) each at 10 µM, were incubated for 2 h at 37°C with HeLa cells. The cells were then washed three times with PBS and visualized by confocal microscopy. (B) Cell toxicity was determined by MTT assay in HeLa TZM-bl cells. (C) Same as (B) but in H9 lymphocytes. Experimental conditions are described in Materials and Methods.
(§2) Following incubation of the cells with the indicated peptides, the medium was removed and the cells were further incubated in Earl's solution containing 0.3 mg/ml MTT for 1 h. Subsequently, the solution was removed and the cells were dissolved in 100 µl DMSO for 10 min at room temperature. The DMSO-solubilized cells were transferred to a 96-well ELISA plate and OD values were monitored at a wavelength of 570 nm.

H9 lymphocytes = experiment: MTT cell toxicity assay, H9; format: cell-based; conditions: up to about 62 µM, Fig 4C
Procedure: as §1, §2

HIV-1 IN = conditions: ref [36]; cited from earlier work
Procedure: Dextran sulfate, various peptides and AZT were added at different times to HIV-1 infected Sup-T1 cells and the amount of viral P24 protein—reflecting efficiency of virus infection—was estimated at 48 h PI.

HIV-1 infected cells = experiment: Cell death and syncytia formation in infected, INr-treated cells; format: cell-based; conditions: combination of the peptide and the virus; not shown

Compound | Time of addition post infection up to which infection is inhibited (HIV-1 in Sup-T1 cells) | Toxic effect, HeLa TZM-bl cells (HeLa TZM-bl cells) | Toxic effect, H9 T-cell lymphocytes (H9 lymphocytes) | other results
Cc1cn([C@H]2C[C@H](N=[N+]=[N-])[C@@H](CO)O2)c(=O)[nH]c1=O [AZT, azidothymidine] | ≤ 10 h |  |  | Effect on reverse transcription / reverse-transcribed viral DNA [1]: reverse-transcribed viral DNA is absent
CC[C@H](C)[C@H](NC(=O)[C@H](CCCCN)NC(=O)CNC(=O)[C@H](CCC(=O)O)NC(=O)[C@H](CC(C)C)NC(=O)[C@H](Cc1c[nH]cn1)NC(=O)[C@@H](NC(=O)[C@@H](N)Cc1c[nH]c2ccccc12)[C@@H](C)O)C(=O)N[C@H](C(=O)N[C@@H](CC(C)C)C(=O)N[C@H](C(=O)N[C@@H](C)C(=O)N[C@H](C(=O)N[C@@H](Cc1c[nH]cn1)C(=O)N[C@H](C(=O)N[C@@H](C)C(=O)O)C(C)C)C(C)C)C(C)C)[C@@H](C)CC [INr-1] |  | No toxic effect | No toxic effect | 
LEDGF 402–411: LEDGF-derived peptide (aa 402–411) which has been shown to block viral IN enzymatic activity (KIRRFKVSQV; UniProt O75475 402-411, looked up, fragment) | about 18 h |  |  | Inhibition of IN enzymatic activity by LEDGF-derived peptides (HIV-1 IN): block viral IN enzymatic activity in vitro and in vivo
WGSNFTSTTVKA [INr-2] |  | No toxic effect | No toxic effect | Cell death and syncytia formation with peptide and virus (HIV-1 infected cells): increase in cell death and syncytia formation
dextran sulfate | ≤ 4 h |  |  | 
